In patent US8962630B2, “Pyrrolopyrimidine compounds and their uses” (Novartis AG, priority 2008, dated 2015):
Where two headings read alike, the source gives them in different places.

Tests used:
Type in all cases: biochemical
CDK1/cyclin B = CDK1/cyclin B (Homo sapiens (Human), UniProt P06493); assay: CDK1/Cyclin B enzymatic activity assay (IMAP-FP)
Description: A 384-well microtiter IMAP-FPT™ (Molecular Devices Trade Mark Technology) endpoint assay was used for CDK1/cyclin B kinase activity measurements. The same assay was used for IC50 determination of small molecule inhibitors.

CDK4/cyclin D1 = CDK4/cyclin D1 (Homo sapiens (Human), UniProt P11802); assay: CDK4/Cyclin D1 enzymatic activity assay (Lance TR-FRET)
Procedure: A 384-well microtiter Lance TR-FRET (time-resolved-fluorescence energy transfer) endpoint assay was used for CDK4/cyclin D1 kinase activity measurements. The same assay was used for IC50 determination of small molecule inhibitors. In general, the kinase reactions were carried out in 30 μL volumes in the reaction solution containing the following: 2 uL compound (in […]), 18 uL CDK4/cyclin D1 in Assay Buffer (50 mM HEPES, pH 7.5, 5 mM MgCl2, 2 mM MnCl2, 1 mM DTT, 0.05% BSA, 0.02% Tween-20), 10 uL of the mixture of pRb152 and ATP. The final reaction mixture contains compound (inhibitor) with the concentration varying from 0.005-10 μM, 2% DMSO, 0.3 nM CDK4/cyclin D1, 175 nM pRb152, and 3 μM ATP (Amersham Pharmacia, Cat. No. 27-2056-01). All reactions were run at room temperature in 384-well white flat-bottom OptiPlates (Perkin Elmer, Cat. No. 6007290) for 60 min then were quenched by the addition of 10 μL of 120 mM EDTA. The signals were captured by the addition of 40 μL of the Detection Solution containing the following: Detection Buffer (50 mM HEPES, pH 7.5, 30 mM EDTA, 0.1% Triton x-100, 0.05% BSA), 70 ng/mL anti-phospho-pRb(S780) (Cell Signaling Technology, Cat. No. 9307S), 1 nM Lance Eu-W1024-Rabbit anti-IgG (Perkin Elmer, Cat. No. AD0082), and 20 nM SureLight™ Allophycocyanin-Streptavidin (Perkin Elmer, Cat. No. CR130-100). The resulted solutions were incubated at room temperature for 2 hours before read on the Evision Multilabel Reader (Perkin Elmer, Envision 2102-0010).
CDk4/cyclin D1 recombinant protein used in the enzymatic activity assay was prepared by coexpressing pDEST10-CDK4 (N-terminal His6) and pFastBacDual-GST-hCyclinDl viruses in Sf21 cells.

CDK2/cyclin A = CDK2/cyclin A (Homo sapiens (Human), UniProt P24941); assay: CDK2/Cyclin A enzymatic activity assay (IMAP-FP)
[1] = Table 2, 20 μM ATP, read-out: CDK1
[2] = Table 2, 3 μM ATP, read-out: CDK4

CDK4/cyclin D1, sequence (P11802 whole entry): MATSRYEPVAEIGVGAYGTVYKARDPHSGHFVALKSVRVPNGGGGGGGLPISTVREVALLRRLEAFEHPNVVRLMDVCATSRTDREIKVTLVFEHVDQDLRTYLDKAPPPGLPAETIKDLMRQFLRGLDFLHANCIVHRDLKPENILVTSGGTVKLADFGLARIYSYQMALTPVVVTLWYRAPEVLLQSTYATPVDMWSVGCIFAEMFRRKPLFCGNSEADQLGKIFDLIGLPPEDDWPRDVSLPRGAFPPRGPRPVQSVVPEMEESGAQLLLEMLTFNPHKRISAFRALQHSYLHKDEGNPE
CDK4/cyclin D1, sequence (P24385 whole entry partner): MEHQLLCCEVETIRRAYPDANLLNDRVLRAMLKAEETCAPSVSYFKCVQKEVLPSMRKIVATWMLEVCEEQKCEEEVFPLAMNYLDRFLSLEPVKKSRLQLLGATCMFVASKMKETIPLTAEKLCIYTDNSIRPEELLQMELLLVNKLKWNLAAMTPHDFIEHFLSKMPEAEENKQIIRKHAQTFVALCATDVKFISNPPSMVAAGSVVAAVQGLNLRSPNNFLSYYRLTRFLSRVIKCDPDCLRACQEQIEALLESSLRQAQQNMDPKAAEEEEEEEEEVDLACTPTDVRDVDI
CDK1/cyclin B, sequence (P06493 whole entry, species assumed): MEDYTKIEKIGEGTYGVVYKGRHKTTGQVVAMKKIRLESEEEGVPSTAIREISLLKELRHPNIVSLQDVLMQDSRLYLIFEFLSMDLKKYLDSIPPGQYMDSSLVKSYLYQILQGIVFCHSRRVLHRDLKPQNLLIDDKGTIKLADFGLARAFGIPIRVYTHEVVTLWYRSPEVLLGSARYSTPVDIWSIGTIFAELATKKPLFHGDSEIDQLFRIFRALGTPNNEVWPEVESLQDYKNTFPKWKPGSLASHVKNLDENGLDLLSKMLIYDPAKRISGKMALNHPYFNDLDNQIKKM
CDK1/cyclin B, sequence (P14635 whole entry partner, species assumed): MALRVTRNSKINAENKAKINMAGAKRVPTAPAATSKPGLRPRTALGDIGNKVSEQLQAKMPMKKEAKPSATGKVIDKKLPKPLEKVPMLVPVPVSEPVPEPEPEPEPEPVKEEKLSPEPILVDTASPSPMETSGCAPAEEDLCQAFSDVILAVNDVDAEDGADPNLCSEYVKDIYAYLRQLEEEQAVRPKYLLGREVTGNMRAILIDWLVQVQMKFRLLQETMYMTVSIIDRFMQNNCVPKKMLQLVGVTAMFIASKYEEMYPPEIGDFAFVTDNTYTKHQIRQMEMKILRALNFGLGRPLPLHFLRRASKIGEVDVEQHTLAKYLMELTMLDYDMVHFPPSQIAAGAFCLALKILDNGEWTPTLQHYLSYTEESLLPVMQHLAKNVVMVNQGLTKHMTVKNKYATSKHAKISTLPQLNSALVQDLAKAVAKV

SMILES	IC50 (CDK1/cyclin B; [1]) [µM]	IC50 (CDK4/cyclin D1; [2]) [µM]	IC50 (CDK2/cyclin A; Table 2, read-out: CDK2) [µM]	IC50 (CDK1/cyclin B; Table 4, read-out: IC50 (μM) CDK1) [µM]	IC50 (CDK4/cyclin D1; Table 4, read-out: IC50 (μM) CDK4) [µM]	IC50 (CDK2/cyclin A; Table 4, read-out: IC50 (μM) CDK2) [µM]
CN(C)C(=O)c1cc2cnc(Nc3ccc(N4CCN(C[C@H](O)CO)CC4)cn3)nc2n1C1CCCC1 [Example 29, 7-Cyclopentyl-2-{5-[4-((S)-2,3-dihydroxy-propyl)-piperazin-1-yl]-pyridin-2-ylamino}-7H-pyrrolo[2,3-d]pyrimidine-6-carboxylic acid dimethylamide]	15	0.01 to 0.1	> 15			
CC(CO)N1CCN(c2ccc(Nc3ncc4cc(C(=O)N(C)C)n(C5CCCC5)c4n3)nc2)CC1 (stereo not drawn) [Example 36, 7-Cyclopentyl-2-{5-[4-(2-hydroxy-1-methyl-ethyl)-piperazin-1-yl]-pyridin-2-ylamino}-7H-pyrrolo[2,3-d]pyrimidine-6-carboxylic acid dimethylamide]	> 15	0.01 to 0.1	> 15			
CN(C)C(=O)c1cc2cnc(Nc3ccc(N4CCN(CCO)CC4)nn3)nc2n1C1CCCC1 [Example 37, 7-Cyclopentyl-2-{6-[4-(2-hydroxy-ethyl)-piperazin-1-yl]-pyridazin-3-ylamino}-7H-pyrrolo[2,3-d]pyrimidine-6-carboxylic acid dimethylamide]	> 15	0.01 to 0.1	> 15			
CN(C)C(=O)c1cc2cnc(Nc3ccc(N4CCN(C(=O)N5CCOCC5)CC4)cn3)nc2n1C1CCCC1 [Example 38, 7-Cyclopentyl-2-{5-[4-(morpholine-4-carbonyl)-piperazin-1-yl]-pyridin-2-ylamino}-7H-pyrrolo[2,3-d]pyrimidine-6-carboxylic acid dimethylamide]	> 15	0.01 to 0.1	> 15			
CN(C)C(=O)c1cc2cnc(Nc3ccc(N4CC[C@H](O)C4)cn3)nc2n1C1CCCC1 [Example 39, 7-Cyclopentyl-2-[5-((S)-3-hydroxy-pyrrolidin-1-yl)-pyridin-2-ylamino]-7H-pyrrolo[2,3-d]pyrimidine-6-carboxylic acid dimethylamide]	> 15	0.01 to 0.1	> 15			
CN(C)C(=O)c1cc2cnc(Nc3ccccn3)nc2n1C1CCC(C)(O)CC1 (stereo not drawn) [Example 40, 7-(4-Hydroxy-4-methyl-cyclohexyl)-2-(pyridin-2-ylamino)-7H-pyrrolo[2,3-d]pyrimidine-6-carboxylic acid dimethylamide]	> 15	0.1 to 1	> 15			
CN(C)C(=O)c1cc2cnc(Nc3ccc(CN4CCNCC4)cn3)nc2n1C1CCCC1 [Example 42, 7-Cyclopentyl-2-(5-piperazin-1-ylmethyl-pyridin-2-ylamino)-7H-pyrrolo[2,3-d]pyri-midine-6-carboxylic acid dimethylamide]	> 15	0.01 to 0.1	> 15			
CN1CCN(Cc2ccc(Nc3ncc4cc(C(=O)N(C)C)n(C5CCCC5)c4n3)nc2)CC1 [Example 43, 7-Cyclopentyl-2-[5-(4-methyl-piperazin-1-ylmethyl)-pyridin-2-ylamino]-7H-pyrrolo[2,3-d]pyrimidine-6-carboxylic acid dimethylamide]	> 15	0.01 to 0.1	> 15			
CN(C)C(=O)c1cc2cnc(Nc3ccc(N4CCN(C(=O)OC(C)(C)C)CC4)nn3)nc2n1C1CCCC1 [Example 45, 4-[6-(7-Cyclopentyl-6-dimethylcarbamoyl-7H-pyrrolo[2,3-d]pyrimidin-2-ylamino)-pyridazin-3-yl]-piperazine-1-carboxylic acid tert-butyl ester]	> 15	0.1 to 1	20			

Results, then the compound that gave them:

IC50 (CDK1/cyclin B; [1]) [µM]	IC50 (CDK4/cyclin D1; [2]) [µM]	IC50 (CDK2/cyclin A; Table 2, read-out: CDK2) [µM]	IC50 (CDK1/cyclin B; Table 4, read-out: IC50 (μM) CDK1) [µM]	IC50 (CDK4/cyclin D1; Table 4, read-out: IC50 (μM) CDK4) [µM]	IC50 (CDK2/cyclin A; Table 4, read-out: IC50 (μM) CDK2) [µM]	SMILES
> 15	0.01 to 0.1	> 15				CN(C)C(=O)c1cc2cnc(Nc3ccc(N4CCN(C(=O)C5CCCCC5)CC4)cn3)nc2n1C1CCCC1 [Example 23, 2-[5-(4-Cyclohexanecarbonyl-piperazin-1-yl)-pyridin-2-ylamino]-7-cyclopentyl-7H-pyrrolo[2,3-d]pyrimidine-6-carboxylic acid dimethylamide]
> 15	0.01 to 0.1	> 15				CC1CN(c2ccc(Nc3ncc4cc(C(=O)N(C)C)n(C5CCCC5)c4n3)nc2)CC(C)N1 (stereo not drawn) [Example 24, 7-Cyclopentyl-2-[5-(3,5-dimethyl-piperazin-1-yl)-pyridin-2-ylamino]-7H-pyrrolo[2,3-d]pyrimidine-6-carboxylic acid dimethylamide]
> 15	0.01 to 0.1	> 15				CN(C)C(=O)c1cc2cnc(Nc3ccc(N4CCN(CC(F)(F)F)CC4)cn3)nc2n1C1CCCC1 [Example 25, 7-Cyclopentyl-2-{5-[4-(2,2,2-trifluoro-ethyl)-piperazin-1-yl]-pyridin-2-ylamino}-7H-pyrrolo[2,3-d]pyrimidine-6-carboxylic acid dimethylamide]
> 15	0.01 to 0.1	> 15	> 15	0.026	> 15	CN(C)C(=O)c1cc2cnc(Nc3ccc(N4CCN(CCO)CC4)cn3)nc2n1C1CCCC1 [Example 26, 7-Cyclopentyl-2-{5-[4-(2-hydroxy-ethyl)-piperazin-1-yl]-pyridin-2-ylamino}-7H-pyrrolo[2,3-d]pyrimidine-6-carboxylic acid dimethylamide]
> 15	0.01 to 0.1	> 15				CN(C)C(=O)c1cc2cnc(Nc3ccc(N4CCN(C(=O)C5CC5)CC4)cn3)nc2n1C1CCCC1 [Example 27, 7-Cyclopentyl-2-[5-(4-cyclopropanecarbonyl-piperazin-1-yl)-pyridin-2-ylamino]-7H-pyrrolo[2,3-d]pyrimidine-6-carboxylic acid dimethylamide]
> 15	0.1 to 1	> 15				C[C@@H]1CN(c2ccc(Nc3ncc4cc(C(=O)N(C)C)n(C5CCCC5)c4n3)nc2)CCN1C(=O)OC(C)(C)C [Example 30, (R)-4-[6-(7-Cyclopentyl-6-dimethylcarbamoyl-7H-pyrrolo[2,3-d]pyrimidin-2-ylamino)-pyridin-3-yl]-2-methyl-piperazine-1-carboxylic acid tert-butyl ester]
> 15	0.1 to 1	> 15				C[C@H]1CN(c2ccc(Nc3ncc4cc(C(=O)N(C)C)n(C5CCCC5)c4n3)nc2)CCN1C(=O)OC(C)(C)C [Example 31, (S)-4-[6-(7-Cyclopentyl-6-dimethylcarbamoyl-7H-pyrrolo[2,3-d]pyrimidin-2-ylamino)-pyridin-3-yl]-2-methyl-piperazine-1-carboxylic acid tert-butyl ester]
> 15	0.01 to 0.1	> 15				CN(C)C(=O)c1cc2cnc(Nc3ccc(N4CC(O)C4)cn3)nc2n1C1CCCC1 [Example 32, 7-Cyclopentyl-2-[5-(3-hydroxy-azetidin-1-yl)-pyridin-2-ylamino]-7H-pyrrolo[2,3-d]pyrimidine-6-carboxylic acid dimethylamide]
> 15	0.01 to 0.1	> 15				CN(C)C(=O)c1cc2cnc(Nc3ccc(N4CCN(CCOCCO)CC4)cn3)nc2n1C1CCCC1 [Example 33, 7-Cyclopentyl-2-(5-{4-[2-(2-hydroxy-ethoxy)-ethyl]-piperazin-1-yl}-pyridin-2-ylamino)-7H-pyrrolo[2,3-d]pyrimidine-6-carboxylic acid dimethylamide]
> 15	0.1 to 1	> 15				CN(C)C(=O)c1cc2cnc(Nc3ccc(CN4CCN(S(C)(=O)=O)CC4)cn3)nc2n1C1CCCC1 [Example 34, 7-Cyclopentyl-2-[5-(4-methanesulfonyl-piperazin-1-ylmethyl)-pyridin-2-ylamino]-7H-pyrrolo[2,3-d]pyrimidine-6-carboxylic acid dimethylamide]
4.7	0.01 to 0.1	2.9				CN(C)C(=O)c1cc2cnc(Nc3ccc(N4CCC(CCO)CC4)cn3)nc2n1C1CCCC1 [Example 35, 7-Cyclopentyl-2-[4-(2-hydroxy-ethyl)-3,4,5,6-tetrahydro-2H-[1,3′]bipyridinyl-6′-ylamino]-7H-pyrrolo[2,3-d]pyrimidine-6-carboxylic acid dimethylamide]
14.8	0.001 to 0.01	4.7				CN(C)C(=O)c1cc2cnc(Nc3ccc(C(=O)N(C)CCN)cn3)nc2n1C1CCCC1 [Example 41, 2-{5-[(2-Amino-ethyl)-methyl-carbamoyl]-pyridin-2-ylamino}-7-cyclopentyl-7H-pyrrolo[2,3-d]pyrimidine-6-carboxylic acid dimethylamide]
